Data taken from patent EP0815072B1, “RADIOGRAPHIC CONTRASTING AGENT FOR COMPUTERISED TOMOGRAPHY AND UROGRAPHY” (SCHERING AKTIENGESELLSCHAFT, priority 1995, dated 1996).

Experiments:
[1] = test system: Ratten; assay: Lethal dose after intravenous injection in rats; format: in vivo; settings: i.v., Ratten (90-110 g), 300 mg Jod/ml, 2 ml/min
Text: (§1) Die Hydrophilie wird als eine wichtige Voraussetzung für eine Verminderung der bei intravenöser Injektion beobachteten nicht osmolalitätsbedingten Nebenwirkungen angesehen (Dawson P., Clauß W.: Contrast Media in Practice, Springer Verlag Berlin Heidelberg 1993, Seite 11-12). Dazu gehören vor allem Übelkeit und Erbrechen, sowie allergieartige Reaktionen bis hin zum schweren anaphylaktoiden Schock. Andere Testergebnisse, die eine besonders gute Allgemeinverträglichkeit anzeigen, werden in biochemischen, biologischen und toxikologischen (Tab. 2) Untersuchungen gewonnen.

[2] = Lethal dose after intravenous injection in rats; format: in vivo, Ratten; settings: rat, in vivo, iv; all three doses pooled, i.v., Ratten; read-out: gestorbene Tiere, alle Dosierungen (%)
Text: as §1

[3] = Butanol/water (buffer pH 7) partition coefficient; format: physicochemical; settings: for Verteilungskoeffizient: Butanol/Wasser (Puffer pH 7), n = 4, Mittelwert ± Standardabweichung
Text: Während Osmolalität, Viskosität und Jodgehalt den strukturisomeren Verbindungen lopamidol und lomeprol sehr ähnlich sind, zeigt sich eine überraschend erhöhte Hydrophilie der erfindungsgemäßen Verbindungen (Tab. 1). Tab.1:
Die Hydrophilie wird nicht wie bei der mit lohexol bezeichneten Verbindung durch die Einführung einer zusätzlichen Hydroxyalkylfunktion erreicht (die den Jodgehalt vermindert und Viskosität und Osmolalität erhöht), sondern ist die überraschende Folge einer neuen sterischen Anordnung der Substituenten an dem jodierten Aromaten.

Structure (SMILES)	Zahl der gestorbenen Tiere / Gesamtzahl der Tiere ([1]; Dosis 1: 12 g J/kg)	Zahl der gestorbenen Tiere / Gesamtzahl der Tiere ([1]; Dosis 2: 15 g J/kg)	Zahl der gestorbenen Tiere / Gesamtzahl der Tiere ([1]; Dosis 3: 18 g J/kg)	mortality [2]	Verteilungskoeffizient [3]	Hydrophilie ([3]; comparison with structurally comparable compounds, from the partition coefficient)
C[C@H](O)C(=O)Nc1c(I)c(C(=O)NC(CO)CO)c(I)c(C(=O)NC(CO)CO)c1I [lopamidol]	2/4	1/4	4/4	58%	0.089 ± 0.014	–
CN(C(=O)CO)c1c(I)c(C(=O)NCC(O)CO)c(I)c(C(=O)NCC(O)CO)c1I (stereo not shown) [lomeprol]	2/3	3/3	3/3	89%	0.105 ± 0.006	–
CC(=O)N(CC(O)CO)c1c(I)c(C(=O)NCC(O)CO)c(I)c(C(=O)NCC(O)CO)c1I (stereo not shown) [lohexol]	–	–	–	–	0.082 ± 0.005	–
CN(CC(O)CO)C(=O)c1c(I)c(NC(=O)CO)c(I)c(C(=O)NCC(O)CO)c1I (stereo not shown) [Beispiel 1, 5-Hydroxyacetylamino-2,4,6-triiod-isophthalsäure-[(2,3-dihydroxy-N-methyl-propyl)-(2,3-dihydroxypropyl)]-diamid]	0/4	2/4	2/4	33%	0.069 ± 0.011	am stärksten hydrophil
COCC(=O)Nc1c(I)c(C(=O)NCC(O)CO)c(I)c(C(=O)N(C)CC(O)CO)c1I (stereo not shown) [lopromid]	1/4	3/4	4/4	67%	0.149 ± 0.011	–
